Series [1] has as its target T1, Amine oxidase [flavin-containing] B (Homo sapiens, UniProt P27338).
T1 sequence (P27338 whole entry): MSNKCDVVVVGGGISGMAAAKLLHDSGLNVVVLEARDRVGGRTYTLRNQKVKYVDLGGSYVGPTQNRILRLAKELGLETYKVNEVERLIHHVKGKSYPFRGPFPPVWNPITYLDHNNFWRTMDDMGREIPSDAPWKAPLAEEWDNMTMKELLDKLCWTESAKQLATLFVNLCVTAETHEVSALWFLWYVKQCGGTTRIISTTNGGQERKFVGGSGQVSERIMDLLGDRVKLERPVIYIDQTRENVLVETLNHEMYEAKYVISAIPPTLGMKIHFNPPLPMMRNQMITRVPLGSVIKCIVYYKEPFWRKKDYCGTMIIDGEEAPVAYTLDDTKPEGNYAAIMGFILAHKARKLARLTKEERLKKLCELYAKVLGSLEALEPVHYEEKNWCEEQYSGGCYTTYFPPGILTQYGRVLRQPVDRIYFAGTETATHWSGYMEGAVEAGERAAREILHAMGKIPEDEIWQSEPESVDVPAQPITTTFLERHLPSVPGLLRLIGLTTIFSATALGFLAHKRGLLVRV
Briefly: Inhibition of human N-terminal Flag-tagged MAOB extracted baculovirus infected in Sf9 cells measured after 0.5 hrs by MAO-Glo Assay. Format: cell-based.

In series [2] the target is T2, Lysine-specific histone demethylase 1A (Homo sapiens, UniProt O60341). Briefly: Induction of thermal stabilization of LSD1 in human MV4-11 cells at 50 to 75 degree C by […] analysis. It is filed as cell-based.
The nature of series [3]: Half life in male Sprague-Dawley rat at 10 mg/kg, po measured up to 24 hrs by LC-MS/MS analysis. It is filed as ADME, organism-based. The settings on record: in vivo.
Series [4] deals with T2, Lysine-specific histone demethylase 1A. Briefly: Inhibition of LSD1 in human MV4-11 cells assessed as increase in H3K4me2 expression level at 2 to 4 micromol/L measured after 48 hrs by Western blot analysis. It is filed as cell-based. The conditions noted are these: dose 2-4 µmol/L.
Series [5] deals with MV4-11. Briefly: Induction of apoptosis in human MV4-11 cells assessed as viable cells at 2 micromol/L measured after 48 hrs by Annexin V-FITC/PI double staining based flow cytometry analysis (reference value: 89.13%). Format: functional. The settings on record: MV4-11, 48 h, dose 2 µmol/L, read-out: Activity.
Series [6] deals with MV4-11. Briefly: Induction of apoptosis in human MV4-11 cells assessed as early apoptotic cells at 3 micromol/L measured after 48 hrs by Annexin V-FITC/PI double staining based flow cytometry analysis (reference value: 2.01 %). Format: functional. The settings on record: dose 3 µmol/L, at 3 µM.
In series [7] the test system is MV4-11. Briefly: Induction of apoptosis in human MV4-11 cells assessed as late apoptotic cells at 3 micromol/L measured after 48 hrs by Annexin V-FITC/PI double staining based flow cytometry analysis (reference value: 7.70 %). Format: functional. The conditions noted are these: dose 3 µmol/L, at 3 µM.
In series [8] the test system is MV4-11. Briefly: Induction of apoptosis in human MV4-11 cells assessed as late apoptotic cells at 4 micromol/L measured after 48 hrs by Annexin V-FITC/PI double staining based flow cytometry analysis (reference value: 7.70 %). It is filed as functional. The conditions noted are these: dose 4 µmol/L, at 4 µM.
The test system of series [9] is MV4-11. The series can be described thus: Induction of apoptosis in human MV4-11 cells assessed as necrotic cells at 3 micromol/L measured after 48 hrs by Annexin V-FITC/PI double staining based flow cytometry analysis (reference value: 1.16 %). The conditions noted are these: dose 3 µmol/L, at 3 µM. Format: functional.
Series [10] relates to MV4-11. Briefly: Induction of apoptosis in human MV4-11 cells assessed as increase in cleaved caspase-3 level at 2 to 4 micromol/L measured after 72 hrs by Western blot analysis. It is filed as functional, cell-based. The conditions noted are these: dose 2-4 µmol/L.
Series [11] has as its system MV4-11. The series can be described thus: Upregulation of CD86 expression in human MV4-11 cells incubated for 48 hrs by flow cytometry analysis. It is filed as functional, cell-based. The settings on record: dose 2-4 µmol/L.
Series [12] is described as follows: Upregulation of CD86 expression in human MV4-11 cells at 4 micromol/L incubated for 48 hrs by flow cytometry analysis relative to control. Format: functional. The settings on record: dose 4 µmol/L, at 4 µM.
Series [13] in a line: Metabolic stability in mouse liver microsomes assessed as half life measured up to 60 mins in presence of NADPH by LC-MS/MS analysis. It is filed as ADME, Microsome.
The nature of series [14]: Metabolic stability in rat liver microsomes assessed as intrinsic clearance measured up to 60 mins in presence of NADPH by LC-MS/MS analysis. It is filed as ADME, Microsome. The conditions noted are these: read-out: CLH.
Series [15] in a line: Solubility in PBS buffer at pH 7.4 measured after 2 hrs by LC-MS/MS analysis. Format: physicochemical.
The nature of series [16]: AUC (0 to t) in male Sprague-Dawley rat at 1 mg/kg, iv measured up to 24 hrs by LC-MS/MS analysis. Format: ADME, organism-based. The settings on record: in vivo.
Series [17] is described as follows: Cmax in male Sprague-Dawley rat at 1 mg/kg, iv measured up to 24 hrs by LC-MS/MS analysis. Format: ADME, organism-based. The conditions noted are these: in vivo.
Series [18] can be described thus: Clearance in male Sprague-Dawley rat at 1 mg/kg, iv measured up to 24 hrs by LC-MS/MS analysis. It is filed as ADME, organism-based. The settings on record: in vivo.

Structures are written as SMILES. Calls of active or inactive are those of the source. No cut-off for these calls is given here.

The record followed here is ChEMBL document CHEMBL6134819, “Discovery of novel tranylcypromine-indazole-based derivatives as LSD1 inhibitors for acute myeloid leukemia treatment” (Eur J Med Chem, 2025).

As for `Cl.O=S(=O)(c1ccccc1)n1ncc2cc(-n3cc(CN[C@@H]4C[C@H]4c4ccc(F)c(F)c4)nn3)ccc21`, the concentration for half-maximal inhibition (IC50) in [1] worked out at 2650 nM. Besides, the result (in series [2]; in the series on MV4-11 [10]) was Active. For the same compound, the half-life in series [3] was 86.4 min; in series [13], 5.3 min. Further, in series [4], the inhibition result was “Active”. The viability at 2 µM in the series with MV4-11 [5] was 80.4%. Moreover, the Activity in the series with MV4-11 [6] is 3.18%; with MV4-11 [7], 13.22%; in the series on MV4-11 [8], 15.39%; in the series with MV4-11 [9], 2.8%; in the series with MV4-11 [11], “Dose-dependent-effect”; in series [12] it was 33.76%. Moreover, in series [14], the CLint scaled turned out to be 352 mL/min/kg. The compound also showed a solubility at 2 h in series [15] of 1.43 µM. The AUC(0-t) at 24 h in series [16] amounted to 481 ng·h/mL. For the same compound, in series [17], the concentration peaked (Cmax) at 869 ng/mL. Further, in [18], the clearance is 35.3 mL/min/kg.
